Experimental data published in patent US11957684B2, “Treatment of heavy menstrual bleeding associated with uterine fibroids” (Sumitomo Pharma Switzerland GmbH, priority 2016, dated 2024).

How the values were obtained:
FIG. 75 = test: FIG. 75
Description: Table printed on a drawing sheet, FIG. 75
First reader's note: Each body row is one statistic (N, Mean, SD, quartiles, range) of the plasma concentration for one dose group, so N rows are subject counts and SD rows are errors; the dose group name is printed only on the N row and is repeated here for its group.

FIG. 167 = test: FIG. 167
Description: Table printed on a drawing sheet, FIG. 167
First reader's note: Units stand in the cells; each column is one drug and the rows are its properties.

[1] = literature (Struthers et al. 2009); cited from earlier work

Description for FIG. 73: First reader's note: Each row is one summary statistic (N, mean, SD, quartiles, range) of the plasma concentration for one dose group; the N rows are subject counts, not ng/mL, and the columns are visit/sampling times.

SMILES	Visit | Week 2: Predose (FIG. 75)	Visit | Week 4: Predose (FIG. 75)	Visit | Week 12 (FIG. 75)	Visit | Week 0: 0.5-[…] (FIG. 73)	Visit | Week 0: 2-5hr (FIG. 73)	Visit | Week 2: 2-5hr (FIG. 73)	Visit | Week 2: Predose (FIG. 73)	Visit | Week 4: 2-5hr (FIG. 73)	Visit | Week 4: Predose (FIG. 73)	Visit | Week 8: 0.5-[…] (FIG. 73)	Visit | Week 8: 2-5hr (FIG. 73)	Visit | Week 8: Predose (FIG. 73)	Visit | Week 12 (FIG. 73)	Visit | Week 16: Predose (FIG. 73)	Visit | Week 20: Predose (FIG. 73)	Visit | Week 24 (FIG. 73)	Visit | Week 8: Predose (FIG. 75)	Visit | Week 2: 0.5-[…] (FIG. 73)	Visit | Week 4: 0.5-[…] (FIG. 73)	Observed Half-life (FIG. 167)	other results
CONC(=O)Nc1ccc(-c2sc3c(c2CN(C)C)c(=O)n(-c2ccc(OC)nn2)c(=O)n3Cc2c(F)cccc2F)cc1 [Compound 1 10 mg]	0.0898 ng/mL	0.1880 ng/mL	0.8620 ng/mL	0.5290 ng/mL	0.5641 ng/mL	0.8025 ng/mL	0.3100 ng/mL	0.9672 ng/mL	0.2670 ng/mL	1.324 ng/mL	0.8301 ng/mL	0.3406 ng/mL	0.2783 ng/mL	0.3251 ng/mL	0.3138 ng/mL	0.2811 ng/mL					Visit | Week 2: 0.5-[…] (FIG. 75): 0.9860 ng/mL; Visit | Week 2: 2-5hr (FIG. 75): 0.8280 ng/mL; Visit | Week 4: 0.5-[…] (FIG. 75): 0.9140 ng/mL; Visit | Week 4: 2-5hr (FIG. 75): 0.3720 ng/mL; Visit | Week 8: 0.5-[…] (FIG. 75): 2.192 ng/mL; Visit | Week 8: 2-5hr (FIG. 75): 1.320 ng/mL; Visit | Week 16: Predose (FIG. 75): 0.1500 ng/mL
CONC(=O)Nc1ccc(-c2sc3c(c2CN(C)C)c(=O)n(-c2ccc(OC)nn2)c(=O)n3Cc2c(F)cccc2F)cc1 [Compound 1 20 mg]	0.8990 ng/mL	0.3880 ng/mL	0.8320 ng/mL	2.784 ng/mL	2.154 ng/mL	2.981 ng/mL	0.8002 ng/mL	3.567 ng/mL	0.6640 ng/mL	3.437 ng/mL	2.643 ng/mL	0.8032 ng/mL	0.6904 ng/mL	0.6280 ng/mL	0.7132 ng/mL	0.6712 ng/mL	0.3380 ng/mL	2.912 ng/mL	3.515 ng/mL		Visit | Week 0: 0.5-[…] (FIG. 75): 7.570 ng/mL; Visit | Week 24 (FIG. 75): 0.7470 ng/mL
CONC(=O)Nc1ccc(-c2sc3c(c2CN(C)C)c(=O)n(-c2ccc(OC)nn2)c(=O)n3Cc2c(F)cccc2F)cc1 [Compound 1 40 mg]			1.520 ng/mL	7.424 ng/mL	7.680 ng/mL	7.550 ng/mL	2.383 ng/mL	8.479 ng/mL	2.315 ng/mL	10.29 ng/mL	11.20 ng/mL	2.233 ng/mL	1.987 ng/mL	1.995 ng/mL	2.240 ng/mL	1.908 ng/mL	3.580 ng/mL	9.210 ng/mL	11.61 ng/mL		
COc1cccc(-c2c(C)n(Cc3c(F)cccc3C(F)(F)F)c(=O)n(C[C@H](NCCCC(=O)O)c3ccccc3)c2=O)c1F [Elagolix^2]																				2 to 6 h	
CONC(=O)Nc1ccc(-c2sc3c(c2CN(C)C)c(=O)n(-c2ccc(OC)nn2)c(=O)n3Cc2c(F)cccc2F)cc1 [Relugolix^1]																				37 to 42 h	
COc1cccc(-c2c(C)n(Cc3c(F)cccc3C(F)(F)F)c(=O)n(C[C@H](NCCCC(=O)O)c3ccccc3)c2=O)c1F [elagolix]																					half-life [1]: 2.4 to 6.3 h
